Experimental data from ChEMBL document CHEMBL5223186, “Agrochemical Lessons for Infectious Disease Research: New Resistance Breaking Antifungal Hits against Candida auris” (ACS Med Chem Lett, 2023).
pIC50: −log10 of the molar value. In brackets after ≈: the same amount, converted by molar mass.

Tests used:
[Candida] auris [1] = Antifungal activity against Candida auris CDC0381 assessed as lowest compound concentration required to inhibit 50 % growth; format: functional, Candidozyma auris
[Candida] auris [2] = Antifungal activity against Candida auris CDC0381 assessed as lowest compound concentration required to inhibit 90 % growth; format: functional, Candidozyma auris
[Candida] auris [3] = Antifungal activity against Candida auris CDC0381 assessed as growth inhibition; format: functional, organism-based; settings: Candidozyma auris
[Candida] auris [4] = Antifungal activity against Candida auris CDC0385 assessed as lowest compound concentration required to inhibit 50 % growth; format: functional, Candidozyma auris
[Candida] auris [5] = Antifungal activity against Candida auris CDC0385 assessed as lowest compound concentration required to inhibit 90 % growth; format: functional, Candidozyma auris
[Candida] auris [6] = Antifungal activity against Candida auris CDC0385 assessed as growth inhibition; format: functional, organism-based; settings: Candidozyma auris
[Candida] auris [7] = Antifungal activity against Candida auris ATCC 6258 assessed as lowest compound concentration required to inhibit 50 % growth; format: functional, Candidozyma auris
[Candida] auris [8] = Antifungal activity against Candida auris ATCC 6258 assessed as lowest compound concentration required to inhibit 90 % growth; format: functional, Candidozyma auris
[Candida] auris [9] = Antifungal activity against Candida auris ATCC 6258 assessed as growth inhibition; format: functional, organism-based; settings: Candidozyma auris
[10] = Cytotoxicity against human HepG2 cells assessed as growth inhibition by XTT assay; format: toxicity, cell-based
[11] = Selectivity index, ratio of IC50 for cytotoxicity against human HepG2 cells to IC50 for antifungal activity against Candida auris CDC0385; format: toxicity, cell-based; settings: read-out: Ratio IC50

SMILES	INH ([Candida] auris [1]) [µg/mL]	INH ([Candida] auris [2]) [µg/mL]	IC50 ([Candida] auris [3]) [µg/mL]	IC90 ([Candida] auris [3]) [µg/mL]	INH ([Candida] auris [4]) [µg/mL]	INH ([Candida] auris [5]) [µg/mL]	IC50 ([Candida] auris [6]) [µg/mL]	IC90 ([Candida] auris [6]) [µg/mL]	INH ([Candida] auris [7]) [µg/mL]	INH ([Candida] auris [8]) [µg/mL]	IC50 ([Candida] auris [9]) [µg/mL]	IC90 ([Candida] auris [9]) [µg/mL]	pIC50 [10]	selectivity ratio [11]
C[C@@H](c1ncncc1F)[C@](O)(Cn1cncn1)c1ccc(F)cc1F [VORICONAZOLE]	0.016	4	0.01 (≈ 0.0286 µM)	0.55 (≈ 1.57 µM)	4	>4	2.94 (≈ 8.42 µM)	> 4	0.25	1	0.2 (≈ 0.573 µM)	0.76 (≈ 2.18 µM)		
C1CCC(C(CC2CCCCN2)C2CCCCC2)CC1 (stereo not given) [PERHEXILINE]													4.95	
C[C@@H]1[C@H](O)[C@@H](C)/C=C/C=C/C=C/C=C/C=C/C=C/C=C/[C@H](O[C@@H]2O[C@H](C)[C@@H](O)[C@H](N)[C@@H]2O)C[C@@H]2O[C@](O)(C[C@@H](O)C[C@@H](O)[C@H](O)CC[C@@H](O)C[C@@H](O)CC(=O)O[C@H]1C)C[C@H](O)[C@H]2C(=O)O [AMPHOTERICIN B]	0.25	0.5	0.2 (≈ 0.216 µM)	0.39 (≈ 0.422 µM)	1	1	0.54 (≈ 0.584 µM)	0.83 (≈ 0.898 µM)	0.5	1	0.49 (≈ 0.53 µM)	0.54 (≈ 0.584 µM)		
Fc1ccc2[nH]cc(-c3ccsc3Br)c2c1	16	16	9.85 (≈ 33.3 µM)	15.7 (≈ 53 µM)	32	>64	29.3 (≈ 98.9 µM)	> 64	64	>64	32.2 (≈ 109 µM)	> 64	< 4.00	> 3.41
NC1CCCc2ccc(C3=NSC(c4cc(Cl)c(F)c(Cl)c4)(C(F)(F)F)C3)cc21 (stereo not given)	2	2	1.43 (≈ 3.09 µM)	1.71 (≈ 3.69 µM)	4	4	2.09 (≈ 4.51 µM)	2.3 (≈ 4.96 µM)	4	4	2.11 (≈ 4.55 µM)	2.62 (≈ 5.65 µM)	4.88	6.29
COCc1ncnc(NC(C)CC#Cc2ccc(Oc3ccc(C(F)(F)F)cn3)cc2)c1OC (stereo not given)	<0.125	1			0.5	8	0.45 (≈ 0.952 µM)	4.61 (≈ 9.76 µM)	>64	>64			< 4.00	> 222
Clc1cc2c(c3ncccc13)OCN(CCc1ccccc1)C2	4	4	2 (≈ 6.16 µM)	2.13 (≈ 6.56 µM)	4	4	2.14 (≈ 6.59 µM)	3.88 (≈ 11.9 µM)	2	4	1.98 (≈ 6.1 µM)	2.2 (≈ 6.77 µM)	4.64	10.6
CCCCCn1nc(-c2ccc(Cl)cc2)cnc1=O	1	4	0.72 (≈ 2.59 µM)	1.59 (≈ 5.72 µM)	2	4	1.8 (≈ 6.48 µM)	3.64 (≈ 13.1 µM)	1	2	0.76 (≈ 2.74 µM)	1.05 (≈ 3.78 µM)	5.68	1.5
Cc1cc(Nc2ccccc2C)n(-c2nc(=O)cc(C)[nH]2)n1	1	4	0.85 (≈ 2.88 µM)	1.93 (≈ 6.53 µM)	2	8	1.45 (≈ 4.91 µM)	6.05 (≈ 20.5 µM)	2	4	1.42 (≈ 4.81 µM)	2.38 (≈ 8.06 µM)	< 4.00	> 69
